# In paper PMC4929945, “Structural and functional analysis of the solute-binding protein UspC from Mycobacterium tuberculosis that is specific for amino sugars” (Open Biology, 2016):
# How the values were obtained:
# [1] = molecular target: T1, UspC (Mtb-UspC, Rv2318), solute-binding protein of the UspABC transporter (Mycobacterium tuberculosis, UniProt P71894); assay: thermal shift saturation binding (Kd,app), Tm shift […]°C at […]
# T1 construct: UspCNt, N-terminally truncated, residues 31–441, His6-tagged
# T1 sequence (P71894 entry or part of it): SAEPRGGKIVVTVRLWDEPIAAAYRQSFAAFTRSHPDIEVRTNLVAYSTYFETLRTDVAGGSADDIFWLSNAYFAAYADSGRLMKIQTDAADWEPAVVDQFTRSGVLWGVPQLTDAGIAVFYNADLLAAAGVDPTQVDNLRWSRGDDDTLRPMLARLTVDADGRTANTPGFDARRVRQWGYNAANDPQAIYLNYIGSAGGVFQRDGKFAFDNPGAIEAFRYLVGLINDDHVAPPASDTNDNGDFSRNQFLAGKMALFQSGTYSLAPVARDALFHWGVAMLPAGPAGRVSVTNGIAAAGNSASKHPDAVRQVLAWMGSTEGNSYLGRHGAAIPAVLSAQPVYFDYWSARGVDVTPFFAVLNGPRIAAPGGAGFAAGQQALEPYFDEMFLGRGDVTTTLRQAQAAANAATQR
# [2] = molecular target: T1, UspC (Mtb-UspC, Rv2318), solute-binding protein of the UspABC transporter; assay: STD-NMR ([…] ligand, […] protein) and thermal shift
structure (smiles),measurement,setting,value
N[C@H]1C(O)O[C@H](COP(=O)(O)O)[C@@H](O)[C@@H]1O (stereo partly drawn) [D-glucosamine-6-phosphate],Kd,[1],27.7 ± 6.4 mM
N[C@H]1C(O)O[C@H](CO)[C@@H](O)[C@@H]1O (stereo partly drawn) [D-glucosamine],"STD-NMR (50 mM ligand, 30 μM protein) and thermal shift",[2],H2 (α and β) and H4 (α and β) of D-glucosamine interact non-covalently with Mtb-UspCNt
